ChEMBL document CHEMBL1143211, “Inhibitors of proteases and amide hydrolases that employ an alpha-ketoheterocycle as a key enabling functionality” (Bioorg Med Chem, 2008)
Where a SMILES comes first, the peptide text is derived from it. [ ]: non-standard residue; d: D form. The star is where a group is joined. Pyrazinecarbonyl = O=C(c1cnccn1)*; Hyp = O=C(O)[C@@H]1C[C@@H](O)CN1; Abu = CC[C@H](N)C(=O)O; Bn = c1ccc(C*)cc1

How the values were obtained:
[1] = Selectivity for rat FAAH over triacylglycerol hydrolase
[2] = Selectivity for rat FAAH over lipoprotein lipase
[3] = Selectivity for rat FAAH over monoacylglycerol lipase
[4] = Selectivity for rat FAAH over carboxylesterase 1 lipase
[5] = Selectivity for human alpha-thrombin over factor 10a
[6] = Selectivity for human alpha-thrombin over plasmin
[7] = Selectivity for human alpha-thrombin over tissue plasminogen activator
[8] = Selectivity for human alpha-thrombin over uPA
[9] = Inhibition of human beta-tryptase
[10] = Selectivity for human beta-tryptase over kallikrein
[11] = Selectivity for human alpha-thrombin over bovine trypsin
Platelet = assay: Antithrombotic activity assessed as inhibition of alpha-thrombin-induced human platelet aggregation; assay type: functional, cell-based
Canis familiaris = assay: Antithrombotic activity in iv dosed dog areteriovenous shunt model assessed as inhibition of thrombus accumulation; assay type: functional; settings: Canis lupus familiaris
Homo sapiens [12] = species: Homo sapiens; assay: Selectivity for human alpha-thrombin over human trypsin
Homo sapiens [13] = species: Homo sapiens; assay: Selectivity for human beta-tryptase over human alpha thrombin
Hamster = assay: Efficacy in po dosed hamster acute lung injury model; assay type: functional; settings: Cricetinae
[14] = Tmax in rat at 3 mg/kg, po; assay type: ADME, organism-based; parameters: dose 3 mg/kg, route oral; settings: in vivo
[15] = Oral bioavailability in rat at 3 mg/kg; assay type: ADME, organism-based; settings: in vivo
[16] = Selectivity for human beta-tryptase over uPA
[17] = Selectivity for human beta-tryptase over trypsin
[18] = Selectivity for human beta-tryptase over plasmin
[19] = Oral bioavailability in rat; assay type: ADME, organism-based; settings: in vivo
[20] = Inhibition of Staphylococcus aureus methionine aminopeptidase
[21] = Inhibition of HCV NS34A protease; parameters: species or system Hepacivirus hominis
Coagulation factor X = Coagulation factor X (Homo sapiens, UniProt P00742); assay: Inhibition of human factor 10a
Coagulation factor X, sequence (P00742 41-179 limits assumed): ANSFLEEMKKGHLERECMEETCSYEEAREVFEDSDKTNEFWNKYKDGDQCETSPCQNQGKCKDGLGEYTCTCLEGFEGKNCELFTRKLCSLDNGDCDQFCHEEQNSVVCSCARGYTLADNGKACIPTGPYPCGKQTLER
Coagulation factor X, sequence (P00742 235-488 limits assumed): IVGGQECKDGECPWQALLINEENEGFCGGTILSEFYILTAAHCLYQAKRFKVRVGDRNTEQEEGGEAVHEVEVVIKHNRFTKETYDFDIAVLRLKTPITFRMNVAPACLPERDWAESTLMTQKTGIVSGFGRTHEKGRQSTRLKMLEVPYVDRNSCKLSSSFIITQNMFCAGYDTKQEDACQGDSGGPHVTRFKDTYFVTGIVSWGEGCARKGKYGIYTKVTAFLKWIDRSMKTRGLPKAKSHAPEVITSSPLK

Plasma kallikrein = Plasma kallikrein (Homo sapiens, UniProt P03952); assay: Inhibition of kallikrein
Plasma kallikrein, sequence (P03952 20-390 limits assumed): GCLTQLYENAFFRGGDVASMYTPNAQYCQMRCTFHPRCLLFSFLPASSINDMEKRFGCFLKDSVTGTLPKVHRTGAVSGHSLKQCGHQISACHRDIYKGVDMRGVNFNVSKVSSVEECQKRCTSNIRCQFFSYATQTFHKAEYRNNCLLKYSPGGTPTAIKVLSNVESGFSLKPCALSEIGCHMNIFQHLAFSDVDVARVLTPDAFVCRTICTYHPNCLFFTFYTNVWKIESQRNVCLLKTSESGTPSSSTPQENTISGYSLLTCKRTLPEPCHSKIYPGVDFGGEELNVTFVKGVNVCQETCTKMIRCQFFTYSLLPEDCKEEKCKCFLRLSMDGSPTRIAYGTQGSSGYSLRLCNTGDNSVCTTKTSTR
Plasma kallikrein, sequence (P03952 391-638 limits assumed): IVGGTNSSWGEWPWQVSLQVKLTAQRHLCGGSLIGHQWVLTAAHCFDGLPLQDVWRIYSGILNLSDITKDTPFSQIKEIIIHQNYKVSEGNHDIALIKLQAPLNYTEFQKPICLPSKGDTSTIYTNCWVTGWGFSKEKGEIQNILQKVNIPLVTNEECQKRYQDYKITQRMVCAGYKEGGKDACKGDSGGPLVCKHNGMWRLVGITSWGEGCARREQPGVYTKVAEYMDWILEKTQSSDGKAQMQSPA

[22] = molecular target: Tissue-type plasminogen activator (Homo sapiens, UniProt P00750); assay: Inhibition of tPA
Tissue-type plasminogen activator, sequence (P00750 whole entry): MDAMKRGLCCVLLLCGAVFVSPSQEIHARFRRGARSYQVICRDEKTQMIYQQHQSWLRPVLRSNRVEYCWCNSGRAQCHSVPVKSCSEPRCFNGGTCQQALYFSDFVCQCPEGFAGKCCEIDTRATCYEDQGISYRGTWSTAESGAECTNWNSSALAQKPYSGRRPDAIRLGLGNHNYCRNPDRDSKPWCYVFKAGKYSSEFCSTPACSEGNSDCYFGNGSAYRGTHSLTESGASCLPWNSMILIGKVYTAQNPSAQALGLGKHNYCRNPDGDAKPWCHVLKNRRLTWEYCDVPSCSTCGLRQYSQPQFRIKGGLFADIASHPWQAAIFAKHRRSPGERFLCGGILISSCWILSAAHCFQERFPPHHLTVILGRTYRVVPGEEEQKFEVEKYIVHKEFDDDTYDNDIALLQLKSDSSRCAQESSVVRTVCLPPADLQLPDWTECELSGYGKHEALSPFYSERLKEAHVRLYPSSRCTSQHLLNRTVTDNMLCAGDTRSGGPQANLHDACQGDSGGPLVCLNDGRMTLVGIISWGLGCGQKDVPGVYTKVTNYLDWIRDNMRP

Plasminogen = Plasminogen (Homo sapiens, UniProt P00747); assay: Inhibition of plasmin
Plasminogen, sequence (P00747 97-580 limits assumed): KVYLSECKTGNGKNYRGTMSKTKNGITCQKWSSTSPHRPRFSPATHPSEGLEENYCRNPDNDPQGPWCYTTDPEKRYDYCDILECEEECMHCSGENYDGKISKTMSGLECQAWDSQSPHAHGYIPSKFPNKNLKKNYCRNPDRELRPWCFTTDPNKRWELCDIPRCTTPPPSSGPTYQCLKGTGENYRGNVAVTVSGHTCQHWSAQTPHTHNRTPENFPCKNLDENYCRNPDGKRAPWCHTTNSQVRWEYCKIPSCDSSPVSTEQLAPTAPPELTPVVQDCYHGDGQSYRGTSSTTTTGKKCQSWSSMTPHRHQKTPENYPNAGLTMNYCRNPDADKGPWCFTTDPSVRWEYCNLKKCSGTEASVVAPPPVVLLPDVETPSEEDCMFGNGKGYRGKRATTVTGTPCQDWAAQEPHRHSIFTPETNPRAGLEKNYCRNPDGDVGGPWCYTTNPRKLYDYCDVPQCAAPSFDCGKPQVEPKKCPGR
Plasminogen, sequence (P00747 581-810 limits assumed): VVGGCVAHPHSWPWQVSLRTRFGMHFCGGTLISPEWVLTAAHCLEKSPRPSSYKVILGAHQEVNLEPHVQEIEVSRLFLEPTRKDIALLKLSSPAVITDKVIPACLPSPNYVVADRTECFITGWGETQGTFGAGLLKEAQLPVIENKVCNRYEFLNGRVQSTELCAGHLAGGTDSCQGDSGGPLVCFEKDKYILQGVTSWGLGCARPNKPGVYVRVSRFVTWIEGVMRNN

[23] = Selectivity for human neutrophil elastase over chymotrypsin
[24] = Selectivity for human neutrophil elastase over cathepsinn G
[25] = Selectivity for human neutrophil elastase over trypsin
[26] = Inhibition of calpain 1 at 10 uM
Homo sapiens [27] = species: Homo sapiens; assay: Selectivity for human recombinant cathepsin S over human cathepsin B
Homo sapiens [28] = species: Homo sapiens; assay: Selectivity for human recombinant cathepsin S over human recombinant K
Homo sapiens [29] = species: Homo sapiens; assay: Selectivity for human recombinant cathepsin S over human recombinant L
[30] = molecular target: T1, Trifunctional purine biosynthetic protein adenosine-3 (Homo sapiens, UniProt P22102); assay: Inhibition of human glycinamide ribonucleotide transformylase
T1 sequence (P22102 whole entry): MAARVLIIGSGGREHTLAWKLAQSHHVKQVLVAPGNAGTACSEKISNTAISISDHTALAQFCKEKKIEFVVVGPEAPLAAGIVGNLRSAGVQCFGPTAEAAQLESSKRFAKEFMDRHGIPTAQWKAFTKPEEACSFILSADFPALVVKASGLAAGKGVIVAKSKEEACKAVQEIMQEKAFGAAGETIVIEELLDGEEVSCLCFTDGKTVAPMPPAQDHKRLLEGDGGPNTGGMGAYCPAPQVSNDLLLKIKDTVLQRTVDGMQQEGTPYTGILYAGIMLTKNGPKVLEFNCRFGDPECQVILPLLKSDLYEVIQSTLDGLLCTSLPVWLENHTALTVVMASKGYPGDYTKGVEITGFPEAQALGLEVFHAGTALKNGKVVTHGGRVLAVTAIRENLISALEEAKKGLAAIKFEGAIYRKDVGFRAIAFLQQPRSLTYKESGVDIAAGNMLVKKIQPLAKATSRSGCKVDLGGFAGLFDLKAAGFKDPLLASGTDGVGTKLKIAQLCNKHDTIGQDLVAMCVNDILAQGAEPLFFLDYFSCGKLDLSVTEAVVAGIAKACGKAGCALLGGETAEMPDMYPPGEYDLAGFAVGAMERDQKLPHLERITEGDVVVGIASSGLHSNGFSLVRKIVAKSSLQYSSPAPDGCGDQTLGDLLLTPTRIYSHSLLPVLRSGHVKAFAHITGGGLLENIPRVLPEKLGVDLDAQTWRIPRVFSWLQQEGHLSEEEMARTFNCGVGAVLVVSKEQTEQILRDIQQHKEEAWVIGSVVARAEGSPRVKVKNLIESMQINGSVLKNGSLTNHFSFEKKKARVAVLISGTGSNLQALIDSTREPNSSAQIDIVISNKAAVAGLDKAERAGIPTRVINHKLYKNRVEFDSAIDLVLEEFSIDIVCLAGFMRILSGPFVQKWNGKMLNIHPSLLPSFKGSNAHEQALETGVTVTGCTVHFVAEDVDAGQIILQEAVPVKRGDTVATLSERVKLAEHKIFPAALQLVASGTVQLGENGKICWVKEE

[31] = Inhibition of Trypanosoma cruzi prolyl endopeptidase Tc80
Prothrombin = Prothrombin (Homo sapiens, UniProt P00734); assay: Inhibition of human alpha-thrombin
Coagulation factor VII = Coagulation factor VII (Homo sapiens, UniProt P08709); assay: Inhibition of human factor 7a
Coagulation factor VII, sequence (P08709 61-212 limits assumed): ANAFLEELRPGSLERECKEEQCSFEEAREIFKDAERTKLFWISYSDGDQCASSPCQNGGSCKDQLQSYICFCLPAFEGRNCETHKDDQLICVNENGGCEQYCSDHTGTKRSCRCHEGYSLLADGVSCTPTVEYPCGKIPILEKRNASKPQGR
Coagulation factor VII, sequence (P08709 213-466 limits assumed): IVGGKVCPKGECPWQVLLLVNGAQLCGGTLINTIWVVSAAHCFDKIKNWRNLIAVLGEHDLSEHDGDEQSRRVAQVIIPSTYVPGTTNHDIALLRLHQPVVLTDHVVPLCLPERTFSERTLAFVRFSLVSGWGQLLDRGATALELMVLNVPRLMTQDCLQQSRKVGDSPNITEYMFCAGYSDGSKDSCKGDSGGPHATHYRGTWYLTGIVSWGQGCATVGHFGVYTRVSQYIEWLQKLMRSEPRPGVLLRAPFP

Complement factor B = Complement factor B (Homo sapiens, UniProt P00751); assay: Inhibition of C3 convertase
Complement factor B, sequence (P00751 whole entry): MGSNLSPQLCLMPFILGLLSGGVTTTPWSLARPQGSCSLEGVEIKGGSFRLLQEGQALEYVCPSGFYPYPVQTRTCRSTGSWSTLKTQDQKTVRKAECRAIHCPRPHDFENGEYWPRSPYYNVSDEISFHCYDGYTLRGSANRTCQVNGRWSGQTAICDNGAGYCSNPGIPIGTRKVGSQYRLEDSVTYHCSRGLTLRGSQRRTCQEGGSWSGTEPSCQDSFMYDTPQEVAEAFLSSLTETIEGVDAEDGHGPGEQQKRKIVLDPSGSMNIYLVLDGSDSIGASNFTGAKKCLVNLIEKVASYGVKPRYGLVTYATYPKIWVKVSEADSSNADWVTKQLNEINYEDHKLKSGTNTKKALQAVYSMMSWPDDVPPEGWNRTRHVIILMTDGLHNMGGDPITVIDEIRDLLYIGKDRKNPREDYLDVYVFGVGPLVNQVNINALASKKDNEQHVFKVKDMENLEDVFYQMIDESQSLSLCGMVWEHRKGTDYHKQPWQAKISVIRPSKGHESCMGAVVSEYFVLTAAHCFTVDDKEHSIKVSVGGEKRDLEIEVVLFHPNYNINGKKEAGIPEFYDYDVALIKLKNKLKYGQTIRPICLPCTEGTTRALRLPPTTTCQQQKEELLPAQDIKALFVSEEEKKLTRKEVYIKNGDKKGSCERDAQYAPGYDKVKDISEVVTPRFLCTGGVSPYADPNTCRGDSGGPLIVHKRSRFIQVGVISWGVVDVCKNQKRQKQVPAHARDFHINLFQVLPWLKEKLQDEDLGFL

Trypsin = Trypsin (Homo sapiens, UniProt P07477+P07478+P35030); assay: Inhibition of human trypsin at 100 uM; assay type: protein assay
[32] = molecular target: T2, Fatty-acid amide hydrolase 1 (Rattus norvegicus, UniProt P97612)
T2 sequence (P97612 whole entry): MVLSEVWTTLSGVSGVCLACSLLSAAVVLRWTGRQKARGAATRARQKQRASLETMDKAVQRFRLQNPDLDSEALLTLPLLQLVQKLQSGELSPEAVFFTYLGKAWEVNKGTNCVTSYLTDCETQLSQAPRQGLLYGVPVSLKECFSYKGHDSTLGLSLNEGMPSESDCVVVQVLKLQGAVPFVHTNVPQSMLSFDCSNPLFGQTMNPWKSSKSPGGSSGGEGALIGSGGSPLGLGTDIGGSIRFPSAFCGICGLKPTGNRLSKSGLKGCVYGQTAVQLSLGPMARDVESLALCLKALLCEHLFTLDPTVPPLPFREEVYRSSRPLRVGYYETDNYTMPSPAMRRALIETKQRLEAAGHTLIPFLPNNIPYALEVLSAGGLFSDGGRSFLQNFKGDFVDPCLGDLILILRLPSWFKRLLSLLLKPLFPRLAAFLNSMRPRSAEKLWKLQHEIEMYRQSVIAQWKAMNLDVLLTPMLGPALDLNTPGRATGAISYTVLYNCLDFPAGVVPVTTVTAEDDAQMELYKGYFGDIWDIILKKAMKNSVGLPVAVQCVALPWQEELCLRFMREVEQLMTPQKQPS

[33] = Selectivity for human chymase over bovine chymotrypsin
[34] = Selectivity for human chymase over cathepsin G
Chymase = Chymase (Homo sapiens, UniProt P23946)
Chymase, sequence (P23946 whole entry): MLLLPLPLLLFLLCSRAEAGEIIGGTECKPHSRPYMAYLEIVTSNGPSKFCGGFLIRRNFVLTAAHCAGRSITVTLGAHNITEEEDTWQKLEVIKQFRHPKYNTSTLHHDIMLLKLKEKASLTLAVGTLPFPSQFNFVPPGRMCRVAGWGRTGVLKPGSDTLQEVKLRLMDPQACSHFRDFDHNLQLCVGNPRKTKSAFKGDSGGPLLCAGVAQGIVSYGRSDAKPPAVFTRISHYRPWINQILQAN

Coagulation factor XII = Coagulation factor XII (Homo sapiens, UniProt P00748); assay: Inhibition of factor 12a
Coagulation factor XII, sequence (P00748 20-372 limits assumed): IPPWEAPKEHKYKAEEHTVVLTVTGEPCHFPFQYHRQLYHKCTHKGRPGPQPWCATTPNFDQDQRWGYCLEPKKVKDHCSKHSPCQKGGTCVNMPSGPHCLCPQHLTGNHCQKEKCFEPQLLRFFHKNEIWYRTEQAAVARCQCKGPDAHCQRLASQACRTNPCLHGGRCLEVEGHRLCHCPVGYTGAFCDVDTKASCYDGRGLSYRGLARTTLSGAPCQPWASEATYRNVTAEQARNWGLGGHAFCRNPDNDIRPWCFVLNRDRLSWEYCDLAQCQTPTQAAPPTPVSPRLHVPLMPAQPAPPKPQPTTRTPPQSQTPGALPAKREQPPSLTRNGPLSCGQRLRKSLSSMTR
Coagulation factor XII, sequence (P00748 373-615 limits assumed): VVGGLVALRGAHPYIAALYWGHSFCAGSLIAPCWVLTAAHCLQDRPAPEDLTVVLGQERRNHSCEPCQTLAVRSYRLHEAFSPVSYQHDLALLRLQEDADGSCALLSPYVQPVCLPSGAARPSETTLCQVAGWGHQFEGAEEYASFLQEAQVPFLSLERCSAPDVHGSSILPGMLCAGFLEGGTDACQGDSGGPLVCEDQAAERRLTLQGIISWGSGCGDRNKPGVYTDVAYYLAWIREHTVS

O=C(CCCCCc1ccccc1)c1nc2ncccc2o1
Selectivity ratio [1]: 10 | Selectivity ratio [2]: > 10000 | Selectivity ratio [3]: > 10000 | Selectivity ratio [4]: > 10000

CC(=O)N1C[C@H](O)C[C@H]1C(=O)N[C@@H](CCCN=C(N)N)C(=O)c1nc2ccccc2s1
Selectivity ratio [5]: > 500 | Selectivity ratio [6]: > 500 | Selectivity ratio [7]: > 500 | Selectivity ratio [8]: 200 | Ki [9]: 10 nM | Selectivity ratio [10]: 30

CN[C@H](Cc1ccccc1)C(=O)N1CCC[C@H]1C(=O)N[C@@H](CCCN=C(N)N)C(=O)c1nc2ccccc2s1
Ratio Ki [11]: 15 | Selectivity ratio [5]: 2400 | Selectivity ratio [6]: 12000 | Selectivity ratio [7]: 23000 | Selectivity ratio [8]: 23000 | IC50 (Platelet): 30 nM | Ki [9]: 6.5 nM

CN[C@H](Cc1ccccc1)C(=O)N1CCC[C@H]1C(=O)N[C@@H](CCCNC(=N)N)C(=O)c1nc2ccc(C(=O)O)cc2s1
IC50 (Platelet): 30 nM | ED50 (Canis familiaris): 0.1 mg/kg

CCOC(=O)N[C@@H](CCCCN)C(=O)c1noc(Cc2ccc(C(=O)NC3Cc4ccccc4C3)cc2)n1
Selectivity ratio [5]: > 1000 | Selectivity ratio (Homo sapiens [12]): > 50 | Ki [9]: 3 nM | Selectivity ratio (Homo sapiens [13]): > 1000

CC(C)C(NC(=O)Cn1c(-c2ccccc2)ncc(N)c1=O)C(=O)c1nnc(C(C)(C)C)o1 (racemic)
ED50 (Hamster): 5.1 mg/kg | Tmax [14]: 36 min | bioavailability [15]: 50%

CCOC(=O)N[C@@H](CCCCN)C(=O)c1noc(Cc2ccc(OCCc3ccccc3)cc2)n1
Selectivity ratio [16]: > 1000 | Selectivity ratio [17]: 35 | Selectivity ratio [18]: 80 | bioavailability [19]: 8% | Ki [9]: 5 nM | Selectivity ratio [10]: > 1000 | Selectivity ratio (Homo sapiens [13]): > 1000

CSCCC(N)C(=O)c1nccs1 (racemic)
IC50 [20]: 19 µM

CC[C@@H](C=O)NC(=O)[C@@H]1C[C@@H](OCc2ccccc2)CN1C(=O)[C@@H](NC(=O)[C@@H](NC(=O)c1cnccn1)C(C)C)C(C)C (Pyrazinecarbonyl-VV[Hyp](Bn)[Abu]-aldehyde)
Ki [21]: 16 µM

NC(N)=NCCC[C@H](NC(=O)CNC(=O)[C@@H](CCCN=C(N)N)NS(=O)(=O)CCc1ccccc1)C(=O)c1nc2ccccc2o1
IC50 (Coagulation factor X): 2 nM | IC50 (Plasma kallikrein): 13 nM | IC50 [22]: 29 nM | IC50 (Plasminogen): 36 nM

Cc1cccc(Cc2nnc(C(=O)[C@@H](NC(=O)[C@@H]3CCCN3C(=O)[C@@H](NC(=O)OCc3ccccc3)C(C)C)C(C)C)o2)c1
Selectivity ratio [23]: > 1000 | Selectivity ratio [24]: > 1000 | Selectivity ratio [25]: > 1000

CC(C)C[C@H](NC(=O)OCc1ccccc1)C(=O)N[C@@H](CC(C)C)C(=O)N[C@@H](Cc1ccccc1)C(=O)c1nccs1
inhibition [26]: 54%

O=C(N[C@H](C(=O)c1nc2ccccc2o1)C1CC1)O[C@@H](CC1CCCCC1)C(=O)N1CCOCC1
Selectivity ratio (Homo sapiens [27]): > 100 | Selectivity ratio (Homo sapiens [28]): > 100 | Selectivity ratio (Homo sapiens [29]): > 100

Nc1nc(N)c(CCCC(c2ccc(C(=O)N[C@@H](CCC(=O)O)C(=O)O)cc2)C(O)c2nc3ccccc3o2)c(=O)[nH]1 (stereo not given in full)
Ki [30]: 1800 nM

CC(C)C[C@H](NC(=O)OCc1ccccc1)C(=O)NCC(=O)N1CCC[C@H]1C(=O)c1nc2ccccc2s1
IC50 [31]: 200 nM

CC(C)C[C@H](NC(=O)OC(C)(C)C)C(=O)N[C@@H](CC(C)C)C(=O)c1ncc[nH]1
inhibition [26]: 77%

CC[C@H](C)[C@H](NC(=O)[C@@H](Cc1ccccc1)NS(=O)(=O)Cc1ccccc1)C(=O)N[C@@H](CCCN=C(N)N)C(=O)c1nccs1
IC50 (Prothrombin): 19 µM | IC50 (Coagulation factor X): 380 nM | IC50 (Coagulation factor VII): 300 nM

CC[C@H](NC(=O)[C@@H]1C[C@@H](OCc2ccccc2)CN1C(=O)[C@@H](NC(=O)[C@@H](NC(=O)c1cnccn1)C(C)C)C(C)C)C(=O)c1nnc(-c2ccccc2)o1
Ki [21]: 35 µM

CC[C@H](C)[C@H](N)C(=O)N[C@H]1CSSC[C@@H](C(=O)N[C@H](C(N)=O)[C@@H](C)O)NC(=O)[C@H](CCCN=C(N)N)NC(=O)[C@H](Cc2cnc[nH]2)NC(=O)[C@H](Cc2cnc[nH]2)NC(=O)CNC(=O)[C@H](Cc2c[nH]c3ccccc23)NC(=O)[C@H](CC(=O)O)NC(=O)[C@H](CCC(N)=O)NC(=O)[C@H](C(C)C)NC(=O)[C@H](C(C)C)NC1=O [COMPSTATIN]
IC50 (Complement factor B): 3.4 µM

CSCCC(N)C(=O)c1ccccn1 (racemic)
IC50 [20]: 16 µM

N=C(N)N1CCC[C@@H](C[C@H](NC(=O)CN2C(=O)CN(CCCc3ccccc3)C(=O)[C@@H]2Cc2ccccc2)C(=O)c2nccs2)C1
inhibition (Trypsin): 80%

O=C(C1=NOC(COCc2ccccc2)C1)[C@@H]1CCCN1C(=O)[C@@H]1CCCN1C(=O)OCc1ccccc1 (stereo not given in full)
Ki [31]: 1.2 nM

O=C(CCCc1ccccc1)c1nc2ncccc2o1
Selectivity ratio [1]: 10 | Selectivity ratio [2]: > 10000 | Selectivity ratio [3]: > 10000 | Selectivity ratio [4]: > 10000 | Ki [32]: 6.9 nM

Nc1nc(N)c(CCCC(C(=O)c2nc3ccccc3o2)c2ccc(C(=O)N[C@@H](CCC(=O)O)C(=O)O)cc2)c(=O)[nH]1 (stereo not given in full)
Ki [30]: 600 nM

COC(=O)c1ccc2oc(C(=O)[C@H](Cc3ccccc3)NC(=O)Cn3c(-c4cccc(OC)c4)ncc(N)c3=O)nc2c1
Selectivity ratio [33]: 200 | bioavailability [19]: 20% | Selectivity ratio [34]: 80 | Ki (Chymase): 4.8 nM

NC(N)=NCCC[C@H](NC(=O)CNC(=O)[C@@H](CCCN=C(N)N)NS(=O)(=O)Cc1ccccc1)C(=O)c1nccs1
IC50 (Coagulation factor XII): 50 nM | IC50 (Plasma kallikrein): 14 nM

COC(=O)c1ccc2oc(C(=O)[C@H](Cc3ccccc3)NC(=O)Cn3c(-c4ccc(F)cc4)ncc(N)c3=O)nc2c1
Ki (Chymase): 23 nM
